Laboratory results as given in US20020090619A1, “Methods for identifying mitochondrial divalent cation transporters” (priority 2000, published 2002).

Assays:
intact yeast = assay: Aequorin luminescence in intact yeast cells expressing mitochondrially targeted aequorin; assay type: cell-based, Saccharomyces cerevisiae
Experimental: Yeast cells (strain X4003-5B; leu2, ade1, his4, met2, ura3, trp5, gal1) obtained from the Yeast Genetic Stock Center (Berkeley, Calif.) were transformed with the pYES2 plasmid, encoding the human mitochondrially targeted apoaequorin fragment, using the lithium acetate method (Sambrook et al., 1989), and INVSc1 cells were transformed with the pGK plasmid encoding the yeast mitochondrially targeted apoaequorin fragment. Selection was carried out on plates prepared with synthetic complete medium minus uracil (SC-U) (Sherman, 1991 Meths. Enzymol. 194:3). Transformed colonies were cultured in a small volume of SC-U and assayed for aequorin activity in vitro as described by Nakajima et al. (1991 Proc. Nat. Acad. Sci. USA 88:6878). Briefly, the cells were harvested by centrifugation, resuspended in lysis buffer (50 mM Tris, 2 mM EDTA, 0.5 mM PMSF, pH 8 w/NaOH), disrupted by vortexing with glass beads, and then treated with 0.1% Triton X-100 to release apoaequorin from the mitochondria. Following centrifugation, 200 μl aliquots of the supernatants were incubated with coelenterazine (2.5 μM) and 2-mercaptoethanol (2 μl), for ˜3 hr while standing on ice, to form the luminescent aequorin from its apoprotein. The coelenterazine cofactor is highly hydrophobic and readily permeates yeast cell membranes (Nakajima et al., 1991) such that reconstitution was conducted without disrupting the cells in some cases. 2-mercaptoethanol was omitted when intact cells were employed. A transformant which yielded high luminescence (named X4003-5B-AEQmito1) was selected for further characterization.
For preculture, the transformant was inoculated into 50 ml of SC-U plus 2% glucose, and incubated in an air shaker at 180 rpm and 30° C. At 24 hr, the preculture was transferred to 500 ml of a medium containing 1% yeast extract, 2% peptone, 2% lactate, 1% galactose, 0.012% adenine, pH 5 w/NaOH, and growth was continued under conditions which were otherwise the same. […]
Luminescence measurements were carried out in 6×50 mm culture tubes, using a total volume of 0.3 ml, and were started by injection of 5-20 μl of mitochondria or cells. […] For each value, the ratio of observed luminescence (L) to the potential luminescence remaining (Lmax) was calculated, and compared to a calibration curve which relates this ratio to the free Ca^2+ concentration. […] The total luminescence available initially (Ltotal) must be known and was determined in separate experiments, wherein a saturating Ca^2+ concentration (20 μM) is employed to discharge the aequorin completely. This value allows Lmax to be calculated at any time, as Ltotal minus the sum of luminescence that already occurred. […]

yeast mitochondria = assay: Membrane potential ΔΨ of isolated yeast mitochondria (safranin O); assay type: biochemical, Saccharomyces cerevisiae; conditions: BSA absent
Experimental: The yeast strain W303-1A (Saccharomyces cerevisiae) was grown aerobically at 30° C. in a medium containing 2% lactate, 1% yeast extract, 2% peptone, 0.05% dextrose, and 0.01% adenine at pH 5.0, and cells were harvested during the logarithmic phase (A600=1.8−2.2). Mitochondria were isolated from spheroplasts as previously described (Jung et al., 1997 J. Biol. Chem. 272:21104), except that 0.6 M sucrose was used in the homogenization medium instead of 0.6 M mannitol (Daum et al., 1982 J. Biol. Chem. 257:13028). The resulting preparations were maintained on ice and were suspended in 0.6 M mannitol 20 mM HEPES (K+) (pH 6.8), containing 0.75 mg/ml BSA and 0.1 mM EGTA. Protein concentration was determined by a reduced volume Biuret method in which 50 μl of the final preparation were solubilized by adding an equal volume of 10% deoxycholate (Na+), with 0.4 ml of Biuret reagent added to the resulting mixture. BSA was employed as the standard.
Unless otherwise noted, mitochondria were incubated at 1 mg protein/ml and at approximately 25° C. in a medium that contained 0.6 M mannitol, 10 mM Pi (K+), 10 mM Hepes (TEA+), pH 7.2, plus 1 mM ethanol as an oxidizable substrate. Compounds having a low solubility in water were added from stock solutions prepared in methanol or DMSO. Ca2+ transport and membrane potential were monitored using the indicating dyes antipyrylazo III (ΔA720-790) and safranin O (ΔA511-533), respectively (Akerman et al., 1976 FEBS Lett. 68:191; Scarpa et al., 1978 Biochem. 17:1378). An SLM Aminco DW-2C spectrophotometer operated in the dual wavelength mode was employed for these purposes. The same instrument, operated in split beam mode, was used to monitor mitochondrial swelling as a decrease in apparent absorbance of mitochondrial suspensions at 540 nm. Oxygen consumption data were obtained using a Clark-type electrode in parallel experiments. Atomic absorption spectroscopy was utilized to monitor the transport of other cations by yeast mitochondria. Briefly, samples were taken at appropriate times and the mitochondria were rapidly sedimented in a microcentrifuge. After carefully removing supernatants, the pellets were solubilized with 2 N percholoric acid (overnight) and centrifuged a second time. The resulting supernatants were diluted with an appropriate volume of distilled water and the concentration of the cation in question was subsequently determined.

With O=C(COCC(=O)N(C1CCCCC1)C1CCCCC1)N(C1CCCCC1)C1CCCCC1 [ETH 129] as the compound, how does the “discharge of aequorin in intact cells” value (intact yeast; 6.5 μM ETH 129, FIG. 19A) read?
The value was “discharge of essentially all of the aequorin”.

What about the “rise of mitochondrial Ca2+ concentration in response to ionophore” value (intact yeast; 6.5 μM ETH 129, cells oxidizing ethanol, 14 mM CaCl2, FIG. 20) of the same compound?
Its value is 6 fold.

What about the “effect on ΔΨ, ionophore together with Ca2+” value (yeast mitochondria; CaCl2 plus ionophore, FIG. 11C) of the same compound?
Its value is “sustained reduction”.

And the “effect on ΔΨ, agent alone” value (yeast mitochondria; FIG. 11B)?
Its value is “little effect”.
